# Activity calls are given as the source filed them. No cut-off for these calls is given here.
# Key:
# HCT-116 [1] = assay: Downregulation of Snail expression in […] at 3 to 6 uM after 24 hrs by Western blotting analysis; assay type: functional, cell-based; conditions: dose 3-6 µM
# RKO [2] = assay: Induction of apoptosis in human RKO cells assessed as increase in cleaved caspase 9 expression at 2.5 uM measured upto 48 hrs by Western blotting analysis; assay type: functional, cell-based; conditions: time hrs <=48
# RKO [3] = assay: Induction of apoptosis in human RKO cells assessed as modulation of cleaved caspase 3 expression level after 48 hrs by Western blotting analysis; assay type: functional, cell-based; conditions: dose 2.5-10 µM
# HCT-116 [4] = assay: Suppression of GAPDH expression in […] at 3 to 6 uM after 24 hrs by Western blotting analysis; assay type: functional, cell-based; conditions: dose 3-6 µM
# RKO [5] = assay: Induction of apoptosis in human RKO cells assessed as total apoptotic cells at 5 uM after 48 hrs by Annexin V/PI staining based flow cytometric analysis; assay type: functional
# RKO [6] = assay: Induction of apoptosis in human RKO cells assessed as total apoptotic cells at 10 uM after 48 hrs by Annexin V/PI staining based flow cytometric analysis; assay type: functional
# CCD-18Co = assay: Antiproliferative activity against human CCD-18Co cells assessed as inhibition of cell growth incubated for 72 hrs by SRB assay; assay type: cell-based
# RKO [7] = assay: Induction of cell cycle arrest in human RKO cells assessed as accumulation at G0/G1 phase at 2.5 uM after 12 hrs by RNase A/propidium iodide staining based flow cytometric analysis (reference value: 60.58 %); assay type: functional
# RKO [8] = assay: Induction of apoptosis in human RKO cells assessed as decrease in survivin expression at 2.5 uM by Western blotting analysis; assay type: functional, cell-based; conditions: time 12-48 hrs, TDE = time-dependent effect
# RKO [9] = assay: Induction of cell cycle arrest in human RKO cells assessed as accumulation at sub-G1 phase at 2.5 uM after 48 hrs by RNase A/propidium iodide staining based flow cytometric analysis (reference value: 0.89 %); assay type: functional
# RKO [10] = assay: Induction of cell cycle arrest in human RKO cells assessed as accumulation at S phase at 2.5 uM after 36 hrs by RNase A/propidium iodide staining based flow cytometric analysis (reference value: 13.33 %); assay type: functional
# RKO [11] = assay: Induction of cell cycle arrest in human RKO cells assessed as accumulation at sub-G1 phase at 2.5 uM after 24 hrs by RNase A/propidium iodide staining based flow cytometric analysis (reference value: 0.40 %); assay type: functional
# RKO [12] = assay: Induction of cell cycle arrest in human RKO cells assessed as accumulation at G2/M phase at 2.5 uM after 12 hrs by RNase A/propidium iodide staining based flow cytometric analysis (reference value: 24.63 %); assay type: functional
# RKO [13] = assay: Suppression of GAPDH protein expression in human RKO cells after 24 hrs by Western blotting analysis; assay type: functional, cell-based; conditions: dose 2.5-10 µM
# RKO [14] = assay: Induction of cell cycle arrest in human RKO cells assessed as accumulation at sub-G1 phase at 5 uM after 24 hrs by RNase A/propidium iodide staining based flow cytometric analysis (reference value: 0.40 %); assay type: functional
# RKO [15] = assay: Induction of cell cycle arrest in human RKO cells assessed as accumulation at G0/G1 phase at 2.5 uM after 24 hrs by RNase A/propidium iodide staining based flow cytometric analysis (reference value: 60.58 %); assay type: functional
# RKO [16] = assay: Induction of cell cycle arrest in human RKO cells assessed as accumulation at sub-G1 phase at 1.25 uM after 24 hrs by RNase A/propidium iodide staining based flow cytometric analysis (reference value: 0.40 %); assay type: functional
# RKO [17] = assay: Induction of cell cycle arrest in human RKO cells assessed as accumulation at S phase at 2.5 uM after 24 hrs by RNase A/propidium iodide staining based flow cytometric analysis (reference value: 24.20 %); assay type: functional
# RKO [18] = assay: Induction of cell cycle arrest in human RKO cells assessed as accumulation at G0/G1 phase at 2.5 uM after 24 hrs by RNase A/propidium iodide staining based flow cytometric analysis (reference value: 51.49 %); assay type: functional
# [19] = Toxicity in BALB/c nude mouse implanted with human RKO cells assessed as change in body weight at 4 to 8 mg/kg, ip administered three times per week for 21 days; assay type: organism-based; conditions: in vivo, 504 h, dose 4-8 mg/kg, time 21 day
# HCT-116 [20] = assay: Antiinvasive activity against human HCT116 cells implanted in nude mouse assessed as inhibition of liver cells invasion after 24 hrs by transwell assay; assay type: functional, cell-based; conditions: dose 3-6 µM
# RKO [21] = assay: Induction of cell cycle arrest in human RKO cells assessed as accumulation at G2/M phase at 2.5 uM after 36 hrs by RNase A/propidium iodide staining based flow cytometric analysis (reference value: 24.63 %); assay type: functional
# RKO [22] = assay: Antitumor activity against human RKO cells implanted in BALB/c nude mouse assessed as inhibition of tumor growth at 4 mg/kg, ip administered three times per week for 21 days and measured every 3 to 4 days by electronic caliper method; assay type: functional; conditions: 504 h, time 21 day, read-out: TGI
# RKO [23] = assay: Induction of apoptosis in human RKO cells assessed as increase in p53 level at 2.5 uM measured upto 48 hrs by Western blotting analysis; assay type: functional, cell-based; conditions: time hrs <=48
# RKO [24] = assay: Induction of cell cycle arrest in human RKO cells assessed as accumulation at G2/M phase at 1.25 uM after 24 hrs by RNase A/propidium iodide staining based flow cytometric analysis (reference value: 24.38 %); assay type: functional
# RKO [25] = assay: Induction of cell cycle arrest in human RKO cells assessed as accumulation at G2/M phase at 2.5 uM after 24 hrs by RNase A/propidium iodide staining based flow cytometric analysis (reference value: 24.38 %); assay type: functional
# RKO [26] = assay: Antitumor activity against human RKO cells implanted in BALB/c nude mouse assessed as suppression of Ki67 expression level in tumor lysates at 4 to 8 mg/kg, ip administered three times per week for 21 days by Western blotting analysis; assay type: functional, organism-based; conditions: Neoplasm, dose 4-8 mg/kg, time 21.0 day
# RKO [27] = assay: Induction of cell cycle arrest in human RKO cells assessed as upregulation of cyclin B1 expression measured after 24 hrs by Western blot analysis; assay type: functional, cell-based; conditions: dose 1.25-5 µM
# RKO [28] = assay: Induction of apoptosis in human RKO cells assessed as total apoptotic cells at 1.25 uM after 48 hrs by Annexin V/PI staining based flow cytometric analysis; assay type: functional
# RKO [29] = assay: Induction of apoptosis in human RKO cells assessed as modulation of cleaved caspase 9 expression level after 48 hrs by Western blotting analysis; assay type: functional, cell-based; conditions: dose 2.5-10 µM
# RKO [30] = assay: Induction of cell cycle arrest in human RKO cells assessed as accumulation at G0/G1 phase at 2.5 uM after 36 hrs by RNase A/propidium iodide staining based flow cytometric analysis (reference value: 60.58 %); assay type: functional
# LS174T = assay: Antiproliferative activity against human LS174T cells assessed as inhibition of cell growth incubated for 72 hrs by SRB assay; assay type: functional, cell-based
smiles,measurement,setting,value
CCCCCCCCC[C@@H](O)CC(=O)N[C@@H](CC(N)=O)C(=O)N[C@@H](CCC(N)=O)C(=O)N[C@H](CC(=O)c1cc(C)cc(O)c1C(=O)c1c(O)cccc1O)CC(C)C,Activity,HCT-116 [1],Active
same,Activity,RKO [2],Active
same,Activity,RKO [3],Dose-Dependent Effect
same,Activity,HCT-116 [4],Active
same,Activity,RKO [5],36.58%
same,Activity,RKO [6],51.04%
same,IC50,CCD-18Co,39.1 µM
same,Activity,RKO [7],54.66%
same,Activity,RKO [8],Tde
same,Activity,RKO [9],17.94%
same,Activity,RKO [10],10.45%
same,Activity,RKO [11],0.56%
same,Activity,RKO [12],27.91%
same,Activity,RKO [13],Dose-Dependent Effect
same,Activity,RKO [14],1.1%
same,Activity,RKO [15],33.93%
same,Activity,RKO [16],0.41%
same,Activity,RKO [17],23.35%
same,Activity,RKO [18],32.4%
same,Activity,[19],Non-Toxic
same,inhibition,HCT-116 [20],Dose-Dependent Effect
same,Activity,RKO [21],63.62%
same,inhibition in vivo at 4 mg/kg,RKO [22],32.8%
same,Activity,RKO [23],Active
same,Activity,RKO [24],29.42%
same,Activity,RKO [25],44.01%
same,Activity,RKO [26],Active
same,Activity,RKO [27],Dose-Dependent Effect
same,Activity,RKO [28],7.85%
same,Activity,RKO [29],Dose-Dependent Effect
same,Activity,RKO [30],22.38%
same,IC50,LS174T,6.36 µM

# — ChEMBL document CHEMBL4811222, “Antitumor Activity of Asperphenin B by Induction of Apoptosis and Regulation of Glyceraldehyde-3-phosphate Dehydrogenase in Human Colorectal Cancer Cells” (J Nat Prod, 2021)
